Tests used:
A431 = experiment: Cell proliferation study (CellTiter-Glo), A431 WT; assay type: cell-based; settings: Homo sapiens, A-431; A431 cells, 72 hrs, CTG
Protocol: (§1) • DMEM medium (Gibco, 11965118) • RPMI1640 medium (Gibco, 11875119) • Fetal bovine serum (FBS) (GBICO, Cat #10099-141) • CellTiter-Glo® luminescent cell viability assay kit (Promega, Cat #G7572) • Black transparent flat-bottom 96-well plate (Corning®, Cat #3603)
(§2) • SpectraMax multi-label microplate reader MD, 2104-0010A; • Carbon dioxide incubator, Thermo Scientific 3100 series; • Biological safety cabinet, Thermo Scientific, 1300 series model A2; • Inverted microscope, Olympus, CKX41SF; • Siemens refrigerator, KK25E76TI.
(§3) • (1) Cells in the logarithmic growth phase were harvested and counted using a […]. The cell viability was determined by the trypan blue dye exclusion method to ensure cell viability above 90%. • (2) The cell concentration was adjusted to reach a desired final density; 90 μL of cell suspension was added to a 96-well plate. • (3) The cells were incubated overnight in the 96-well plate at 37° C., 5% CO2 and with 95% humidity.
(§4) • (1) 10 μL of PBS was added to each well of the TO plate containing the cells, • (2) The CTG reagent was thawed and the cell plate was equilibrated to room temperature for 30 min. • (3) An equal volume of CTG solution was added to each well. • (4) The cells were lysed by shaking on an orbital shaker for 5 min. • (5) The cell plate was left to stand at room temperature for 20 min to stabilize the fluorescence signal. • (6) The fluorescence signal values of TO were read.
(§5) • (1) According to the compound information table, a corresponding volume of DMSO was added to the corresponding compound powder to prepare a 10 mM stock solution. • (2) A 1000-fold, 3.16-fold-diluted compound solution was prepared. • (3) The 1000× diluted compound solution was diluted 100-fold with PBS to prepare a 10-fold compound solution with a maximum concentration of 10 μM, including 9 concentrations, with 3.16-fold dilution, and 10 μL of the medicament solution was added to each well of the 96-well plate to seed the cells. Triplicate wells were set for each compound concentration, with a final concentration of DMSO being 0.1%. • (4) The cells were placed in the 96-well plate containing the medicament at 37° C., 5% CO2 and with 95% humidity, and cultured for 72 hrs before CTG analysis,
(§6) • (1) The CTG reagent was thawed and the cell plate was equilibrated to room temperature for 30 min. • (2) An equal volume of CTG solution was added to each well. • (3) The cells were lysed by shaking on an orbital shaker for 5 min. • (4) The cell plate was left to stand at room temperature for 20 min to stabilize the fluorescence signal. • (5) The fluorescence values were read.
(§7) Data were analyzed using GraphPad Prism 7.0 software and fitted data were regressed using non-linear S-curves to obtain dose-response curves from which IC50 values (in nM) were calculated.

Ba/F3 EGFR-Del19-C797S = Ba/F3 EGFR-Del19-C797S (Homo sapiens, UniProt P00533, C797S, cells depend on it, form not given); experiment: Cell proliferation study (CellTiter-Glo), Ba/F3 EGFR-Del19-C797S; assay type: cell-based; settings: 72 hrs, CTG, read-out: Del19/C797S IC50
Sequence of Ba/F3 EGFR-Del19-C797S (P00533 with tags, fused parts or gaps DEL746-750/C797S, form open): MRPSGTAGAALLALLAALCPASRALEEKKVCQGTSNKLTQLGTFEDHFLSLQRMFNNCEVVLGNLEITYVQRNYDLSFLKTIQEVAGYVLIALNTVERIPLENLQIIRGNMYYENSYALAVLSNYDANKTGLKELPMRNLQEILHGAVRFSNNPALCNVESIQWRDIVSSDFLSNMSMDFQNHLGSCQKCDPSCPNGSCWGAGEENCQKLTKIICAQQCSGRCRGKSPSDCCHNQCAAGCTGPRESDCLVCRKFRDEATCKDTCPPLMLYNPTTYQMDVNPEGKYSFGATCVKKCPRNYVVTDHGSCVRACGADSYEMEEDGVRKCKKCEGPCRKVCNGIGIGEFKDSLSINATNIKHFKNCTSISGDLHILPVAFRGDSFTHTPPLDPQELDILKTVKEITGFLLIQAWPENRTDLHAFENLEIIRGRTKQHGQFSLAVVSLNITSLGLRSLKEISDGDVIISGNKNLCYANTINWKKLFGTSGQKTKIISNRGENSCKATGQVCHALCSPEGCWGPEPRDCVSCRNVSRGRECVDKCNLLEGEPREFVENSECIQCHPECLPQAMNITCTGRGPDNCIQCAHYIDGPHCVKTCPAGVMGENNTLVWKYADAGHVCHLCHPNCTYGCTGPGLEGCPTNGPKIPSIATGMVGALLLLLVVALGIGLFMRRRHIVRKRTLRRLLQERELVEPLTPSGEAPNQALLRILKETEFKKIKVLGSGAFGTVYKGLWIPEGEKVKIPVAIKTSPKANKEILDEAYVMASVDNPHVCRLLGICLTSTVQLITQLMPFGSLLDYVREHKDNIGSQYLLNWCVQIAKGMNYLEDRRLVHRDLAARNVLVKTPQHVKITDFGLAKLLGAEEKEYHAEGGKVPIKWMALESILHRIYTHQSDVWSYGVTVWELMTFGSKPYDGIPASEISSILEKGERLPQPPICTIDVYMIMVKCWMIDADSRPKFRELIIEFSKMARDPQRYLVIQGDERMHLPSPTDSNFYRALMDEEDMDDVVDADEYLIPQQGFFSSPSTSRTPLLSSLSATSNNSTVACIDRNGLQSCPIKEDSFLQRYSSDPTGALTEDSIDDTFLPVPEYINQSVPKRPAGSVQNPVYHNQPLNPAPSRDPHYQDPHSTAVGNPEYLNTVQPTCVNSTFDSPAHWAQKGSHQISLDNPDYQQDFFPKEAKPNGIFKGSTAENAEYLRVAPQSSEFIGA
Protocol: as §1, §2, §3, §4, §5, §6, §7

Ba/F3 EGFR-L858R = Ba/F3 EGFR-L858R (Homo sapiens, UniProt P00533, L858R, cells depend on it); experiment: Cell proliferation study (CellTiter-Glo), Ba/F3 EGFR-L858R; assay type: cell-based; settings: 72 hrs, CTG, read-out: L858R IC50
Sequence of Ba/F3 EGFR-L858R (P00533 whole entry L858R): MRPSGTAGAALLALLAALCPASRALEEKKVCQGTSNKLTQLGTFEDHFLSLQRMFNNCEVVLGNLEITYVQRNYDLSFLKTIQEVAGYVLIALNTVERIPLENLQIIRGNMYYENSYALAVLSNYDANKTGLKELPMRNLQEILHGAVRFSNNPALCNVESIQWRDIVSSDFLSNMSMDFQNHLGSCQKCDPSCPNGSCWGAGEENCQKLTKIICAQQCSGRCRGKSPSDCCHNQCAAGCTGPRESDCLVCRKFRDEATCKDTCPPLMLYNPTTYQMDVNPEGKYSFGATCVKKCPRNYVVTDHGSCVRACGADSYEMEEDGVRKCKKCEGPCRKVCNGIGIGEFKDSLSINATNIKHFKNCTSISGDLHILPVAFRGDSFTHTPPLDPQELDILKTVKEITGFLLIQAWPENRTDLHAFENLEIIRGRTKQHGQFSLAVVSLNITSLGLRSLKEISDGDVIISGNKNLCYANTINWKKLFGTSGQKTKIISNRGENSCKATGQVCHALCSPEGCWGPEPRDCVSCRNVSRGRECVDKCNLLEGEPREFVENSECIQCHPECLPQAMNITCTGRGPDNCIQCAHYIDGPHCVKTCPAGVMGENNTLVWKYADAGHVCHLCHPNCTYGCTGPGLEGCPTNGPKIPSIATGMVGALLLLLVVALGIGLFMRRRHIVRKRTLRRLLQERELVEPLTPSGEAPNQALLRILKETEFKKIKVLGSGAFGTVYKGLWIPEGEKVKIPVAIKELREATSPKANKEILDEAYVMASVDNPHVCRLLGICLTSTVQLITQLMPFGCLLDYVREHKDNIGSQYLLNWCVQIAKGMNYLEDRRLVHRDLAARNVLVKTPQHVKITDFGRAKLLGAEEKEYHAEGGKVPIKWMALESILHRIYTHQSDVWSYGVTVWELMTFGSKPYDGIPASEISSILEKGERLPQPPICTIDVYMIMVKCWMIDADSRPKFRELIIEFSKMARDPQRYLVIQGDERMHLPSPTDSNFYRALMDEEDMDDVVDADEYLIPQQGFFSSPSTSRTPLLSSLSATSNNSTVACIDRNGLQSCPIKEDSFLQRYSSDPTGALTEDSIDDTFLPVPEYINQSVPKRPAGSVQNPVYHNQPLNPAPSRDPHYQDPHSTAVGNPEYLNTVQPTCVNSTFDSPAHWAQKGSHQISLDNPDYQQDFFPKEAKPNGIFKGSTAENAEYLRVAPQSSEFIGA
Protocol: as §1, §2, §3, §4
as §5, with “Triplicate wells were set for each compound concentration, with a final concentration of DMSO being 0.1%. • (4) The cells were placed in the 96-well plate containing the medicament at 37° C., 5% CO2 and with 95% humidity, and cultured for 72 hrs before CTG analysis,” left out
as §6, §7

Ba/F3 EGFR-L858R-C797S = Ba/F3 EGFR-L858R-C797S (Homo sapiens, UniProt P00533, C797S/L858R, cells depend on it); experiment: Cell proliferation study (CellTiter-Glo), Ba/F3 EGFR-L858R-C797S; assay type: cell-based; settings: 72 hrs, CTG, read-out: L858R/C797S IC50
Sequence of Ba/F3 EGFR-L858R-C797S (P00533 whole entry C797S/L858R): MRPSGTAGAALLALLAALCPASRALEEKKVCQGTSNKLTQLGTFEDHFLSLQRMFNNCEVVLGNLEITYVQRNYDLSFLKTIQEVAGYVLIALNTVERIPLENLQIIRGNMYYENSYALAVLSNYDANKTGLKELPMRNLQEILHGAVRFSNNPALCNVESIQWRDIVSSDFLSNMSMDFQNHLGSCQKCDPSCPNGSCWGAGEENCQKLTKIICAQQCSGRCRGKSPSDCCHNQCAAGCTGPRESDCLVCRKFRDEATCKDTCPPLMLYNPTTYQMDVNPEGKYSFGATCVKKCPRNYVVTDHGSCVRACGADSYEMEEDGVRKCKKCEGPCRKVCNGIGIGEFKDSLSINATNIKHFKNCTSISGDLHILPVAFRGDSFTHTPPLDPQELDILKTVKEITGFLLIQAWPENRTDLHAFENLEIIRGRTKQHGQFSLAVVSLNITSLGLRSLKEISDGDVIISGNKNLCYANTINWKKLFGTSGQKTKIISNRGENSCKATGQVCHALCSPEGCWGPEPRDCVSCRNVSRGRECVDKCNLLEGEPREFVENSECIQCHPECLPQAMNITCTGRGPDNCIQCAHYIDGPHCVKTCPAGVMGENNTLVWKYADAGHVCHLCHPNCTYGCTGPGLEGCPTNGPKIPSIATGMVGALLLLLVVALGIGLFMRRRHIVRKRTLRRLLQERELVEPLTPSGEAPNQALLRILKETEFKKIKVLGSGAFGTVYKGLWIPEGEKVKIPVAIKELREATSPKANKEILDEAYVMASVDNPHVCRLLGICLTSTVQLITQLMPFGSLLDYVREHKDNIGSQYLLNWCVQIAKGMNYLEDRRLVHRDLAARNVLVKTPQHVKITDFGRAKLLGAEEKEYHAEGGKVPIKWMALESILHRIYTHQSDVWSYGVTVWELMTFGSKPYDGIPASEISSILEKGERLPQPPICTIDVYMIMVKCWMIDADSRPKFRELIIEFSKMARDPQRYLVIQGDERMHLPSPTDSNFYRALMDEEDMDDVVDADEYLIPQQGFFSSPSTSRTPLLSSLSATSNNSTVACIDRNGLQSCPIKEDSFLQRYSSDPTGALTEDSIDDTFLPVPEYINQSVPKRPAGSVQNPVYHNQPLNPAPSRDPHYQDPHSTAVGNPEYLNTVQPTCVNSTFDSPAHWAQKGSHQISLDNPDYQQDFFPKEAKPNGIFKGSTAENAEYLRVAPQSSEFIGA
Protocol: as §1, §2, §3, §4, §5, §6, §7

Ba/F3 EGFR-Del19 = Ba/F3 EGFR-Del19 (Homo sapiens, UniProt P00533, cells depend on it, form not given); experiment: Cell proliferation study (CellTiter-Glo), Ba/F3 EGFR-Del19; assay type: cell-based; settings: 72 hrs, CTG, read-out: Del19 IC50
Sequence of Ba/F3 EGFR-Del19 (P00533 with tags, fused parts or gaps DEL746-750): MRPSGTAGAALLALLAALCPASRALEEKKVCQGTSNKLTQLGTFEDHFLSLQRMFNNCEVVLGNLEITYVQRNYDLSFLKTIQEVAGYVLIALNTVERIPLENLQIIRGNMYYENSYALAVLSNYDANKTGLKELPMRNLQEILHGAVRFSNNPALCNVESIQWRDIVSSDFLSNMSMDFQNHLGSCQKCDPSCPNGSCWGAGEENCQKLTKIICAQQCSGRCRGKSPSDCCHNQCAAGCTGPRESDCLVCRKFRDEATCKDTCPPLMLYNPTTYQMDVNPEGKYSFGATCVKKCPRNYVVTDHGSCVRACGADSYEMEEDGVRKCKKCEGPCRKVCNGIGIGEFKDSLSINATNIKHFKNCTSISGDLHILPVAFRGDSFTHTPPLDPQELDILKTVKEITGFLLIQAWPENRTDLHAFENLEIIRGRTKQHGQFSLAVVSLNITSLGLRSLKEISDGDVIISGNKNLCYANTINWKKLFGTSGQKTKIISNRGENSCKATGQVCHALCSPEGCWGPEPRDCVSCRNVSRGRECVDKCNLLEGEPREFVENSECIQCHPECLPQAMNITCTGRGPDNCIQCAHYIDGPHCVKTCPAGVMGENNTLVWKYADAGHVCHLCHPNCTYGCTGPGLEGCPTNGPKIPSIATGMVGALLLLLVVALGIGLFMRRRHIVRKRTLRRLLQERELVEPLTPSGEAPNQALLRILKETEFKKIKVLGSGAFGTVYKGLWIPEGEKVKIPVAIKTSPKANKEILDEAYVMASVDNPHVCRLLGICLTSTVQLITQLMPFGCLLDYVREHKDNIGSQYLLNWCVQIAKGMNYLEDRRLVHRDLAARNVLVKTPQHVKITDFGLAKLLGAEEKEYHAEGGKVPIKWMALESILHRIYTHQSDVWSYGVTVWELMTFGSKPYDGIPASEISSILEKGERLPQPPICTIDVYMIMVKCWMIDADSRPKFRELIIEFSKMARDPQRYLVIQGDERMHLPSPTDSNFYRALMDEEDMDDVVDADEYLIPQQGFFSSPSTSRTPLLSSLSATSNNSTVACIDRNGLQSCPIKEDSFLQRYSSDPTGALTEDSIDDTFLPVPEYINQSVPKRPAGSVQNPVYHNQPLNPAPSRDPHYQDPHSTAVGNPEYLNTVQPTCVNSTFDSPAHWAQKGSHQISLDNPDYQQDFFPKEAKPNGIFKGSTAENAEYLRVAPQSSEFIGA
Protocol: as §1, §2, §3, §4
as §5, with “Triplicate wells were set for each compound concentration, with a final concentration of DMSO being 0.1%. • (4) The cells were placed in the 96-well plate containing the medicament at 37° C., 5% CO2 and with 95% humidity, and cultured for 72 hrs before CTG analysis,” left out
as §6, §7

[1] = system: EGFR-Mutated Advanced Non-Small-Cell Lung Cancer; settings: patients, untreated EGFR-mutated advanced NSCLC; cited from earlier work

IC50 (A431)	GI50 (Ba/F3 EGFR-Del19-C797S)	GI50 (Ba/F3 EGFR-L858R)	GI50 (Ba/F3 EGFR-L858R-C797S)	GI50 (Ba/F3 EGFR-Del19)	SMILES	overall survival [1]	progression-free survival [1]
182 nM	3.7 nM	3 nM	9.1 nM	3.4 nM	COc1cc(N2CCC(N3CCN(C)CC3)CC2)c(C)cc1Nc1cc(Nc2ccnc(-c3ccccc3F)c2)ncn1 [Example 1, N^4-(2-(2-fluorophenyl)pyridin-4-yl)-N^6-(2-methoxy-5-methyl-4-(4-(4-methylpiperazin-1-yl)piperidin-1-yl)phenyl)pyrimidine-4,6-diamine]	–	–
554 nM	17.4 nM	2.9 nM	10.4 nM	2.8 nM	COc1cc(N2CCC(N3CCOCC3)CC2)c(C)cc1Nc1cc(Nc2ccnc(-c3ccccc3F)c2)ncn1 [Example 2, N^4-(2-(2-fluorophenyl)pyridin-4-yl)-N^6-(2-methoxy-5-methyl-4-(4-morpholinopiperidin-1-yl)phenyl)pyrimidine-4,6-diamine]	–	–
217 nM	–	–	23.3 nM	–	CCOc1cc(N2CCC(N3CCN(C)CC3)CC2)c(C)cc1Nc1cc(Nc2ccnc(-c3ccccc3F)c2)ncn1 [Example 3, N^4-(2-ethoxy-5-methyl-4-(4-(4-methylpiperazin-1-yl)piperidin-1-yl)phenyl)-N^6-(2-(2-fluorophenyl)pyridin-4-yl)pyrimidine-4,6-diamine]	–	–
237 nM	12.7 nM	6.2 nM	12.1 nM	6.6 nM	Cc1cc(Nc2cc(Nc3ccnc(-c4ccccc4F)c3)ncn2)c(OC(F)F)cc1N1CCC(N2CCN(C)CC2)CC1 [Example 4, N^4-(2-(difluoromethoxy)-5-methyl-4-(4-(4-methylpiperazin-1-yl)piperidin-1-yl)phenyl)-N^6-(2-(2-fluorophenyl)pyridin-4-yl)pyrimidine-4,6-diamine]	–	–
–	–	–	53.2 nM	–	Cc1cc(Nc2cc(Nc3ccnc(-c4ccccc4F)c3)ncn2)c(OCC(F)(F)F)cc1N1CCC(N2CCN(C)CC2)CC1 [Example 5, N^4-(2-(2-fluorophenyl)pyridin-4-yl)-N^6-(5-methyl-4-(4-(4-methylpiperazin-1-yl)piperidin-1-yl)-2-(2,2,2-trifluoroethoxy)phenyl)pyrimidine-4,6-diamine]	–	–
1080 nM	23.7 nM	–	32.1 nM	–	CCc1cc(Nc2cc(Nc3ccnc(-c4ccccc4F)c3)ncn2)c(OC)cc1N1CCC(N2CCN(C)CC2)CC1 [Example 6, N^4-(5-ethyl-2-methoxy-4-(4-(4-methylpiperazin-1-yl)piperidin-1-yl)phenyl)-N^6-(2-(2-fluorophenyl)pyridin-4-yl)pyrimidine-4,6-diamine]	–	–
2500 nM	–	–	69.1 nM	–	COc1cc(N2CCC(N3CCN(C)CC3)CC2)c(C(C)C)cc1Nc1cc(Nc2ccnc(-c3ccccc3F)c2)ncn1 [Example 7, N^4-(2-(2-fluorophenyl)pyridin-4-yl)-N^6-(5-isopropyl-2-methoxy-4-(4-(4-methylpiperazin-1-yl)piperidin-1-yl)phenyl)pyrimidine-4,6-diamine]	–	–
1660 nM	34.6 nM	–	40 nM	–	COc1cc(N2CCC(N3CCN(C)CC3)CC2)c(C2CC2)cc1Nc1cc(Nc2ccnc(-c3ccccc3F)c2)ncn1 [Example 8, N^4-(5-cyclopropyl-2-methoxy-4-(4-(4-methylpiperazin-1-yl)piperidin-1-yl)phenyl)-N^6-(2-(2-fluorophenyl)pyridin-4-yl)pyrimidine-4,6-diamine]	–	–
1520 nM	–	–	68.6 nM	–	COc1cc(N2CCC(N3CCN(C)CC3)CC2)c(-c2cnn(C)c2)cc1Nc1cc(Nc2ccnc(-c3ccccc3F)c2)ncn1 [Example 9, N^4-(2-(2-fluorophenyl)pyridin-4-yl)-N^6-(2-methoxy-5-(1-methyl-1H-pyrazol-4-yl)-4-(4-(4-methylpiperazin-1-yl)piperidin-1-yl)phenyl)pyrimidine-4,6-diamine]	–	–
–	–	–	117 nM	–	COc1cc(N2CCOCC2)c(-c2cnn(C)c2)cc1Nc1cc(Nc2ccnc(-c3ccccc3F)c2)ncn1 [Example 10, N^4-(2-(2-fluorophenyl)pyridin-4-yl)-N^6-(2-methoxy-5-(1-methyl-1H-pyrazol-4-yl)-4-morpholinophenyl)pyrimidine-4,6-diamine]	–	–
306 nM	–	–	72.6 nM	–	COc1cc(N2CCN(C)CC2)c(-c2cnn(C)c2)cc1Nc1cc(Nc2ccnc(-c3ccccc3F)c2)ncn1 [Example 11, N^4-(2-(2-fluorophenyl)pyridin-4-yl)-N^6-(2-methoxy-5-(1-methyl-1H-pyrazol-4-yl)-4-(4-methylpiperazin-1-yl)phenyl)pyrimidine-4,6-diamine]	–	–
2340 nM	–	–	77.4 nM	–	COc1cc(N2CCC(N3CCN(C)CC3)CC2)c(C)cc1Nc1cc(Nc2cncc(-c3ccccc3F)c2)ncn1 [Example 12, N^4-(5-(2-fluorophenyl)pyridin-3-yl)-N^6-(2-methoxy-5-methyl-4-(4-(4-methylpiperazin-1-yl)piperidin-1-yl)phenyl)pyrimidine-4,6-diamine]	–	–
182 nM	16.9 nM	–	22.8 nM	–	COc1cc(N2CCC(N3CCN(C)CC3)CC2)c(F)cc1Nc1cc(Nc2ccnc(-c3ccccc3F)c2)ncn1 [Example 13, N^4-(5-fluoro-2-methoxy-4-(4-(4-methylpiperazin-1-yl)piperidin-1-yl)phenyl)-N^6-(2-(2-fluorophenyl)pyridin-4-yl)pyrimidine-4,6-diamine]	–	–
228 nM	21.9 nM	–	21.4 nM	–	COc1cc(N2CCC(N3CCN(C)CC3)CC2)c(Cl)cc1Nc1cc(Nc2ccnc(-c3ccccc3F)c2)ncn1 [Example 14, N^4-(5-chloro-2-methoxy-4-(4-(4-methylpiperazin-1-yl)piperidin-1-yl)phenyl)-N^6-(2-(2-fluorophenyl)pyridin-4-yl)pyrimidine-4,6-diamine]	–	–
181 nM	–	–	18.3 nM	–	COc1cc(N2CCC(N3CCN(C)CC3)CC2)c(Br)cc1Nc1cc(Nc2ccnc(-c3ccccc3F)c2)ncn1 [Example 15, N^4-(5-bromo-2-methoxy-4-(4-(4-methylpiperazin-1-yl)piperidin-1-yl)phenyl)-N-(2-(2-fluorophenyl)pyridin-4-yl)pyrimidine-4,6-diamine]	–	–
177 nM	12.9 nM	3.9 nM	11.3 nM	3.1 nM	CCN1CCN(C2CCN(c3cc(OC)c(Nc4cc(Nc5ccnc(-c6ccccc6F)c5)ncn4)cc3C)CC2)CC1 [Example 16, N^4-(4-(4-(4-ethylpiperazin-1-yl)piperidin-1-yl)-2-methoxy-5-methylphenyl)-N^6-(2-(2-fluorophenyl)pyridin-4-yl)pyramidine-4,6-diamine]	–	–
1060 nM	85 nM	–	87.8 nM	–	CN1CCN(C2CCN(c3cc(Cl)c(Nc4cc(Nc5ccnc(-c6ccccc6F)c5)ncn4)cc3Cl)CC2)CC1 [Example 17, N^4-(2,5-dichloro-4-(4-(4-methylpiperazin-1-yl)piperidin-1-yl)phenyl)-N^6-(2-(2-fluorophenyl)pyridin-4-yl)pyrimidine-4,6-diamine]	–	–
984 nM	25.1 nM	–	21.7 nM	–	Cc1cc(Nc2cc(Nc3ccnc(-c4ccccc4F)c3)ncn2)c(Cl)cc1N1CCC(N2CCN(C)CC2)CC1 [Example 18, N^4-(2-chloro-5-methyl-4-(4-(4-methylpiperazin-1-yl)piperidin-1-yl)phenyl)-N^6-(2-(2-fluorophenyl)pyridin-4-yl)pyrimidine-4-diamine]	–	–
–	–	–	–	–	C=CC(=O)Nc1cc(Nc2nccc(-c3cn(C)c4ccccc34)n2)c(OC)cc1N(C)CCN(C)C [osimertinib]	38.6 months	18.9 months

— patent US20240360102A1, “PYRIMIDINE-4,6-DIAMINE DERIVATIVE, A PREPARATION METHOD THEREFOR, AND A PHARMACEUTICAL APPLICATION THEREOF” (Abbisko Therapeutics Co., Ltd., priority 2021, published 2024)
